# Test results as given in patent publication US20240041042A1, “1-(PYRIDYL)-5-AZINYLPYRAZOLE DERIVATIVES, AND THEIR USE FOR CONTROL OF UNDESIRED PLANT GROWTH” (Bayer Aktiengesellschaft, priority 2020, published 2024).
# Where two headings read alike, the source gives them in different places.
# How the values were obtained:
# Format in all cases: in vivo
# Avena fatua (AVEFA) [1] = test: Pre-emergence herbicidal action against AVEFA; conditions: 320 g/ha, visual scoring after about 3 weeks vs untreated controls
# In short: (§1)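 Pre-emergence soil-surface spray, WP/EC formulation, 0.5% additive, 600 l/ha water, rates of 320 g/ha or lower. Greenhouse, ~3 wk. Visual score, % of untreated control (100% = plants dead, 0% = like control).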
# [2] = test system: Amaranthus retroflexus (AMARE); test: Pre-emergence herbicidal action against AMARE; conditions: visual scoring after about 3 weeks vs untreated controls
# In short: as §1
# [3] = test system: Pharbitis purpurea (PHBPU); test: Pre-emergence herbicidal action against PHBPU
# In short: as §1
# [4] = test system: Verconica persica (VERPE); test: Post-emergence herbicidal action against VERPE
# In short: (§2)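 Doses of 320 g/ha or lower, suffixes a, b and c marking different dosages, were applied post-emergence at the one-leaf stage in 600 l/ha water with 0.5% additive. Damage was assessed visually after about 3 weeks in the greenhouse.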
# [5] = test system: Polygonum convolvulus (POLCO); test: Post-emergence herbicidal action against POLCO
# In short: as §2
# [6] = test system: Abutilon theophrasti (ABUTH); test: Pre-emergence herbicidal action against ABUTH; conditions: 100% = plants have died
# In short: as §1
# [7] = test system: Amaranthus retroflexus (AMARE); test: Post-emergence herbicidal action against AMARE
# In short: as §2
# Setaria viridis (SETVI) [8] = test: Post-emergence herbicidal action against SETVI
# In short: as §2
# Lolium rigidum (LOLRI) [9] = test: Pre-emergence herbicidal action against LOLRI
# In short: as §1
# Setaria viridis (SETVI) [10] = test: Pre-emergence herbicidal action against SETVI
# In short: as §1
# [11] = test system: Alopecurus myosuroides (ALOMY); test: Post-emergence herbicidal action against ALOMY; conditions: visual rating about 3 weeks after treatment vs untreated controls (100% = plants have died, 0% = like control plants)
# In short: as §2
# Avena fatua (AVEFA) [12] = test: Post-emergence herbicidal action against AVEFA; conditions: visual rating about 3 weeks after treatment
# In short: as §2
# [13] = test system: Echinochloa crus-galli (ECHCG); test: Post-emergence herbicidal action against ECHCG
# In short: as §2
# [14] = test system: Alopecurus myosuroides (ALOMY); test: Pre-emergence herbicidal action against ALOMY; conditions: scored visually after about 3 weeks, 100% = plants have died
# In short: as §1
# [15] = test system: Matricaria inodora (MATIN); test: Post-emergence herbicidal action against MATIN
# In short: as §2
# [16] = test system: Abutilon theophrasti (ABUTH); test: Post-emergence herbicidal action against ABUTH; conditions: visual rating about 3 weeks after treatment vs untreated controls (100% = plants have died, 0% = like control plants)
# In short: as §2
# Oryza sativa (ORYSA) = conditions: crop plant compatibility
# In short: (§3)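 Effects were read visually as % versus untreated controls (0% = no effect, 100% = death) about 3 weeks post-treatment. Application was a post-emergence spray at the one-leaf stage of WP/EC formulations with 0.5% additive at 600 l/ha. Different dosages are denoted a, b and c.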
# Zea mays (ZEAMX) = test system: Zea mays (ZEAMX)
# In short: as §3
# [17] = test system: Echinochloa crus-galli (ECHCG); test: Pre-emergence herbicidal action against ECHCG
# In short: as §1
# [18] = test system: Pharbitis purpurea (PHBPU); test: Post-emergence herbicidal action against PHBPU
# In short: as §2
# [19] = test system: Verconica persica (VERPE); test: Pre-emergence herbicidal action against VERPE; conditions: dosage 320 g/ha
# In short: as §1
# [20] = test system: Polygonum convolvulus (POLCO); test: Pre-emergence herbicidal action against POLCO
# In short: as §1
# [21] = test system: Matricaria inodora (MATIN); test: Pre-emergence herbicidal action against MATIN
# In short: as §1
# Viola tricolor (VIOTR) [22] = test: Pre-emergence herbicidal action against VIOTR
# In short: as §1
# Viola tricolor (VIOTR) [23] = test: Post-emergence herbicidal action against VIOTR
# In short: as §2
# Lolium rigidum (LOLRI) [24] = test: Post-emergence herbicidal action against LOLRI
# In short: as §2
# [25] = Dosage column 320 g/ha (title prints 3200 g/ha), scored visually after about 3 weeks
# [26] = 80 g/ha, effect in comparison to untreated controls
# [27] = 320 g/ha, visual rating about 3 weeks after treatment
Compound,Pre-emergence action against AVEFA in % (Avena fatua (AVEFA) [1]) [%],Pre-emergence action against AMARE in % ([2]; 80 g/ha) [%],Pre-emergence action against AMARE in % ([2]; 320 g/ha) [%],Pre-emergence action against PHBPU in % ([3]; dosage 80 g/ha) [%],Pre-emergence action against PHBPU in % ([3]; dosage 320 g/ha) [%],Post-emergence action against VERPE in % ([4]; dosage 80 g/ha) [%],"Pre-emergence action against ABUTH [6, 25] [%]",Post-emergence action against SETVI in % (Setaria viridis (SETVI) [8]; dosage 80 g/ha) [%],Pre-emergence action against LOLRI in % (Lolium rigidum (LOLRI) [9]; dosage 80 g/ha) [%],Pre-emergence action against SETVI in % (Setaria viridis (SETVI) [10]; dosage 80 g/ha) [%],Pre-emergence action against SETVI in % (Setaria viridis (SETVI) [10]; dosage 320 g/ha) [%],Post-emergence action against ECHCG in % ([13]; dosage 80 g/ha) [%],Pre-emergence action against ALOMY ([14]; 320 g/ha) [%],Pre-emergence action against ECHCG in % ([17]; dosage 80 g/ha) [%],Pre-emergence action against ECHCG in % ([17]; dosage 320 g/ha) [%],Pre-emergence action against VERPE in % [19] [%],Pre-emergence action against POLCO in % ([20]; dosage 320 g/ha) [%],Pre-emergence action against MATIN in % ([21]; dosage 320 g/ha) [%],"Pre-emergence action against VIOTR in % (Viola tricolor (VIOTR) [22]; 320 g/ha, Viola tricolor) [%]",Pre-emergence action against VIOTR in % (Viola tricolor (VIOTR) [22]; dosage 80 g/ha) [%],other results
O=C(O)COc1nn(-c2ccccn2)c(-c2cncc(F)c2)c1Cl [Example I-81],80,80,90,90,100,90,90,80,90,90,100,90,100,90,100,90,90,90,100,80,"Post-emergence action against POLCO in % ([5]; dosage 80 g/ha): 80%; Post-emergence action against AMARE in % ([7]; 80 g/ha, visual rating about 3 weeks after treatment vs untreated controls (100% = plants have died, 0% = like control plants)): 90%; Pre-emergence action against LOLRI in % (Lolium rigidum (LOLRI) [9]; dosage 320 g/ha): 100%; Post-emergence action against ALOMY in % ([11]; 80 g/ha): 90%; Post-emergence action against AVEFA in % (Avena fatua (AVEFA) [12]; 80 g/ha): 90%; Pre-emergence action against ALOMY ([14]; 80 g/ha): 80%; Post-emergence action against MATIN in % ([15]; dosage 80 g/ha): 90%; Post-emergence action against ABUTH in % ([16]; 80 g/ha): 80%; Post-emergence action against ORYSA in % (Oryza sativa (ORYSA); 20 g/ha, effect vs untreated controls): 0%; Post-emergence action against ORYSA in % (Oryza sativa (ORYSA); [26]): 0%; Post-emergence action against ZEAMX in % (crop plant compatibility) (Zea mays (ZEAMX); 20 g/ha, ZEAMX, effect in comparison to untreated controls): 0%; Post-emergence action against ZEAMX in % (Zea mays (ZEAMX); crop plant compatibility, 80 g/ha, effect vs untreated controls): 0%; Post-emergence action against PHBPU in % ([18]; dosage 80 g/ha): 90%; Pre-emergence action against POLCO in % ([20]; dosage 80 g/ha): 90%; Pre-emergence action against MATIN in % ([21]; dosage 80 g/ha): 80%"
O=C(O)COc1nn(-c2nc(F)ccc2F)c(-c2cncc(F)c2)c1Br [Example I-207],80,90,100,90,90,80,80,90,,80,100,80,80,90,100,90,100,90,100,100,"Post-emergence action against VERPE in % ([4]; 320 g/ha, VERPE): 90%; Post-emergence action against AMARE in % [7, 27]: 80%; Post-emergence action against SETVI in % (Setaria viridis (SETVI) [8]; dosage 320 g/ha): 90%; Post-emergence action against VIOTR in % (Viola tricolor (VIOTR) [23]; 320 g/ha): 80%; Post-emergence action against ALOMY in % ([11]; 320 g/ha): 90%; Post-emergence action against ECHCG in % ([13]; dosage 320 g/ha): 80%; Post-emergence action against MATIN in % ([15]; dosage 320 g/ha): 80%; Post-emergence action against ABUTH in % ([16]; 320 g/ha): 80%; Post-emergence action against ORYSA in % (Oryza sativa (ORYSA); [26]): 10%; Post-emergence action against PHBPU in % ([18]; dosage 80 g/ha): 80%; Post-emergence action against PHBPU in % ([18]; dosage 320 g/ha): 90%; Pre-emergence action against POLCO in % ([20]; dosage 80 g/ha): 90%; Pre-emergence action against MATIN in % ([21]; dosage 80 g/ha): 90%"
CCOC(=O)COc1nn(-c2ccccn2)c(-c2ccc(F)nc2)c1Br [Example I-86],90,100,100,,90,,100,100,100,100,100,100,100,100,100,90,100,100,100,80,"Post-emergence action against VERPE in % ([4]; 320 g/ha, VERPE): 80%; Post-emergence action against POLCO in % ([5]; dosage 320 g/ha): 90%; Pre-emergence action against ABUTH ([6]; 80 g/ha, scored visually after about 3 weeks vs untreated controls, 0% = like control plants): 80%; Post-emergence action against AMARE in % [7, 27]: 90%; Post-emergence action against SETVI in % (Setaria viridis (SETVI) [8]; dosage 320 g/ha): 100%; Post-emergence action against LOLRI in % (Lolium rigidum (LOLRI) [24]; dosage 80 g/ha): 100%; Post-emergence action against LOLRI in % (Lolium rigidum (LOLRI) [24]; dosage 320 g/ha): 100%; Pre-emergence action against LOLRI in % (Lolium rigidum (LOLRI) [9]; dosage 320 g/ha): 100%; Post-emergence action against VIOTR in % (Viola tricolor (VIOTR) [23]; 80 g/ha): 80%; Post-emergence action against VIOTR in % (Viola tricolor (VIOTR) [23]; 320 g/ha): 90%; Post-emergence action against ALOMY in % ([11]; 80 g/ha): 100%; Post-emergence action against ALOMY in % ([11]; 320 g/ha): 100%; Post-emergence action against AVEFA in % (Avena fatua (AVEFA) [12]; 320 g/ha): 100%; Post-emergence action against ECHCG in % ([13]; dosage 320 g/ha): 100%; Pre-emergence action against ALOMY ([14]; 80 g/ha): 100%; Post-emergence action against MATIN in % ([15]; dosage 320 g/ha): 80%; Post-emergence action against ABUTH in % ([16]; 80 g/ha): 90%; Post-emergence action against ABUTH in % ([16]; 320 g/ha): 90%"
